Values of other authors as cited in patent publication US8114906B2, “Essential fatty acids in the treatment and/or inhibition of depression in patients with coronary heart or artery disease” (Abbott Products GmbH, priority 2004, dated 2012).

Experiments:
[1] = tested on: treatment resistant depression; settings: EPA added to treatment
[2] = tested on: depression in post-myocardial patients; settings: one study

SMILES	symptoms of treatment resistant depression [1]	effects in post-myocardial patients with concomitant depression [2]
CC/C=C\C/C=C\C/C=C\C/C=C\C/C=C\CCCC(=O)OCC [EPA, eicosapentanoic acid ethyl ester]	symptoms remission	
CN[C@H]1CC[C@@H](c2ccc(Cl)c(Cl)c2)c2ccccc21 [sertraline]		beneficial effects
